Data taken from US7842703B2, “Substituted benzofused derivatives and their use as vanilloid receptor ligands” (Glenmark Pharmaceuticals S.A., priority 2005, dated 2010).

Key:
[1] = biological target: T1, Human TRPV1 expressing CHO cells (Homo sapiens, UniProt Q8NER1); test: Screening for TRPV1 antagonist using the 45Calcium uptake assay (inhibition of capsaicin induced cellular uptake of radioactive calcium); type: cell-based; details: for inhibition at 1 µM: CHO; for inhibition at 1 µM / % inhibition of ^45Ca uptake at 1 μM: test compound 1 μM, capsaicin 250 nM, relative to maximum ^45Ca uptake induced by capsaicin alone; for IC50: inhibition of capsaicin (250 nM) induced ^45Ca uptake
T1 construct: expressed in transfected cells; host or cells: CHO cells under G-418 selection
Method: The inhibition of TRPV1 receptor activation was followed as inhibition of capsaicin induced cellular uptake of radioactive calcium which represents calcium influx exclusively through the plasma membrane associated TRPV1 receptor.
Stock solution of capsaicin was made in ethanol and test compounds in 100% DMSO. Stock solutions were diluted to appropriate final concentrations in assay buffer keeping the final DMSO concentration between 0.1% and 0.55%.
^45Ca was used at a final concentration of 2.5 μCi/ml (^45Ca, ICN).
Assay buffer was composed of F-12 DMEM medium supplemented with 1.8 mM CaCl2 (final conc.) and 0.1% Bovine serum albumin. (BSA from SIGMA)
Wash buffer was tyrodes solution supplemented with 0.1% BSA and 1.8 mM calcium. Lysis buffer contained 50 mM Tris-HCl, pH7.5, 150 mM NaCl, 1% Triton X-100, 0.5% deoxycholate and 0.1% Sodium dodicyl sulphate (SDS, SIGMA)
Assay was carried out with some modifications the of procedure as described by Toth et. al. (See Toth A et. al., Life Sciences 73 p 487-498, 2003). Human TRPV1 expressing CHO cells were grown in F-12 DMEM (Dulbecco's modified Eagle's medium—GIBCO) medium with 10% FBS (fetal bovine serum Hyclone), 1% penicillin-streptomycin solution, 400 μg/ml of G-418. Cells were seeded 48 h prior to the assay in 96 well plates so as to get ˜50,000 cells per well on the day of experiment. Plates were incubated at 37° C. in the presence of 5% CO2. Cells were then washed twice with 200 μl of assay buffer and re-suspended in 144 μl of the same. Assay was carried out at 30° C. in total volume of 200 μl. Test compounds were added to the cells fifteen minutes before addition of capsaicin, Final concentration of capsaicin in the assay was 250 nM. After 5 minutes of agonist treatment, drug was washed out and wells rinsed with 300 μl of ice cold wash buffer 3×. The cells were lysed in 50 μl lysis buffer for 20 min. 40 μl of cell lysate was mixed with 150 μl of Microscint PS, left overnight for equilibration. Radioactivity in samples was measured as counts per minute (cpm) using Packard Biosciences Top Count. The drug/vehicle/capsaicin treated ^45Ca uptake values were normalized over basal ^45Ca value. Data was expressed as % inhibition of ^45Ca uptake by test compound with respect to maximum ^45Ca uptake induced by capsaicin alone. IC50 value was calculated from dose response curve by nonlinear regression analysis using GraphPadPRISM software.

T1 sequence (Q8NER1 whole entry): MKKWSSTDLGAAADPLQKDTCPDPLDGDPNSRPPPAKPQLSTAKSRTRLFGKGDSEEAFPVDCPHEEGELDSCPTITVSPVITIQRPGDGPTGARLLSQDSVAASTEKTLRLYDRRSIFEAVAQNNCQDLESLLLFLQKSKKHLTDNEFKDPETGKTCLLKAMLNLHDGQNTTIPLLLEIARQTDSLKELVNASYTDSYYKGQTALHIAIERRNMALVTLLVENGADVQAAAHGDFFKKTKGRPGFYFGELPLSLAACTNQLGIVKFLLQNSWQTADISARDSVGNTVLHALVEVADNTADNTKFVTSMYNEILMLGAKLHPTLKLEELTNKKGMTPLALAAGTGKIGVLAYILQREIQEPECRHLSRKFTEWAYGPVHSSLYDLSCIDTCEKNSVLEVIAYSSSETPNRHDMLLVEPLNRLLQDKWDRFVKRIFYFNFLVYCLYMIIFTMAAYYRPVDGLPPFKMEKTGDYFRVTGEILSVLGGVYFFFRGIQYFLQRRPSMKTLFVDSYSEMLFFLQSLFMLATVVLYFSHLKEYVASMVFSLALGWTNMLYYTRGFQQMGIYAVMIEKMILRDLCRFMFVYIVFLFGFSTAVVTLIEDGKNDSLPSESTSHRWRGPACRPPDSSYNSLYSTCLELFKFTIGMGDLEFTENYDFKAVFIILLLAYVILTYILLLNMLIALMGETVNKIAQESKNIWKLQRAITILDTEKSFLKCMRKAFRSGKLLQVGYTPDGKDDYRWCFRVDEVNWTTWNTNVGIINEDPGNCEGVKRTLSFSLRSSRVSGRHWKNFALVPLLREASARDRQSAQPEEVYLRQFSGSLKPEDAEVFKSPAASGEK

inhibition at 1 µM [1] [%]	IC50 [1] [µM]	melting point [°C]	% inhibition of ^45Ca uptake at 1 μM [1] [%]	Compound
> 50	0.775	246 to 247		O=C(Nc1cccc2cnccc12)NC1CC2(CCC2)Oc2c(O)cccc21 (racemic) [Example 61, (±) 1-(3,4-Dihydro-8-hydroxy-spiro[2H-1-benzopyran-2,1′-cyclobutane]-4-yl)-3-(isoquinolin-5-yl)urea]
< 50				CC(=O)Nc1ccc2c(c1)C(NC(=O)Nc1cccc3cnccc13)CC1(CCC1)O2 (racemic) [Example 78, (±) 1-(6-Acetamido-3,4-dihydro-spiro[2H-1-benzopyran-2,1′-cyclobutane]-4-yl)-3-(isoquinolin-5-yl)urea]
< 50				Nc1ccc2c(c1)C(NC(=O)Nc1cccc3cnccc13)CC1(CCC1)O2 (racemic) [Example 79, (±) 1-(6-Amino-3,4-dihydro-spiro[2H-1-benzopyran-2,1′-cyclobutane]-4-yl)-3-(isoquinolin-5-yl)urea]
> 50	0.0052			O=C(Nc1cccc2cnccc12)NC1CC2(CCC2)Sc2ccccc21 (racemic) [Example 81, (±) 1-(3,4-dihydro-spiro[2H-1-benzothiopyran-2,1′-cyclobutan]-4-yl)-3-(isoquinolin-5-yl)urea]
	0.224		>50	O=C(Nc1cccc2cnccc12)NC1CC2(CCC2)S(=O)(=O)c2ccccc21 (racemic) [Example 82, (±) 1-(1,1-dioxo-3,4-dihydro-spiro[2H-1-benzothiopyran-2,1′cyclobutane]-4-yl)-3-(isoquinolin-5-yl)urea]
> 50	0.00759			O=C(Nc1cccc2cnccc12)NC1CC2(CCC2)Oc2c(F)cc(F)cc21 (single isomer, unassigned; (+)) [Example 59]
			<50	O=C(Nc1cccc2cnccc12)NC1CC2(CCC2)Oc2c(F)cc(F)cc21 (single isomer, unassigned; (-)) [Example 60, (−) 1-(6,8-Difluoro-3,4-Dihydro-spiro[2H-1-benzopyran-2,1′-cyclobutane]-4-yl)-3-(isoquinolin-5-yl)urea]
< 50				O=C(Nc1cccc2cnccc12)NC1CC2(CCC2)Oc2ccc(Cl)cc21 (single isomer, unassigned; (-)) [Example 64, (−) 1-(6-Chloro-3,4-dihydro-spiro[2H-1-benzopyran-2,1′-cyclobutane]-4-yl)-3-(isoquinolin-5-yl)urea]
< 50				O=C(Nc1cccc2cnccc12)NC1CC2(CCC2)Oc2cc(Cl)ccc21 (single isomer, unassigned; (-)) [Example 76, (−) 1-(7-Chloro-3,4-dihydro-spiro[2H-1-benzopyran-2,1′-cyclobutane]-4-yl)-3-(isoquinolin-5-yl)urea]
> 50	0.0161			O=C(Nc1cccc2cnccc12)NC1CC2(CCC2)Oc2c(F)cc(F)cc21 (centres unmarked) [Example 48, 1-(6,8-Difluoro-3,4-dihydro-spiro[2H-1-benzopyran-2,1′-cyclobutane]-4-yl)-3-(isoquinolin-5-yl)urea]
> 50	0.049	187 to 188		S=C(Nc1cccc2cnccc12)NC1CC2(CCC2)Oc2ccccc21 (centres unmarked) [Example 80, N′-isoquinolin-5-yl-N-3,3′,4,4′-tetrahydro-2′H-spiro[chromene-2,1′-cyclobutan]-4-ylthiourea(N′-isoquinolin-5-yl-N-3,4-dihydro-2H-spiro[chromene-2,1′-cyclobutan]-4-ylthiourea)]
			<50	S=C(Nc1cccc2ccncc12)NC1CC2(CCC2)Oc2ccccc21 (centres unmarked) [Example 83, N′-isoquinolin-8-yl-N-3,3′,4,4′-tetrahydro-2′H-spiro[chromene-2,1′-cyclobutan]-4-ylthiourea (N′-isoquinolin-8-yl-N-3,4-dihydro-2H-spiro[chromene-2,1′-cyclobutan]-4-ylthiourea)]

Further lines, the compound ahead of its results:

Compound	inhibition at 1 µM [1] [%]	IC50 [1] [µM]	melting point [°C]	% inhibition of ^45Ca uptake at 1 μM [1] [%]
O=C(Nc1cccc2cnccc12)NC1CC2(CCC2)Oc2ccccc21 (single isomer, unassigned; (+)) [Example 4, (+) 1-(3,4-Dihydro-spiro-[2H-1-benzopyran-2,1′-cyclobutan]-4-yl)-3-(isoquinolin-5-yl)urea]	> 50	0.0078		
O=C(Nc1cccc2c[n+]([O-])ccc12)NC1CC2(CCC2)Oc2ccccc21 (single isomer, unassigned; (+)) [Example 10, (+) 1-(3,4-Dihydro-spiro[2H-1-benzopyran-2,1′-cyclobutane]-4-yl)-3-(2-oxoisoquinolin-5-yl)urea]	> 50	0.104		
O=C(Nc1cccc2cnccc12)NC1CC2(CCC2)Oc2ccc(F)cc21 (single isomer, unassigned; (+)) [Example 43, (+) 1-(3,4-Dihydro-6-fluoro-spiro[2H-1-benzopyran-2,1′-cyclobutane]-4-yl)-3-(isoquinolin-5-yl)urea]	> 50	0.0052		
O=C(Nc1cccc2cnccc12)NC1CC2(CCC2)Oc2ccccc21 (single isomer, unassigned; (-)) [Example 5, (−) 1-(3,4-Dihydro-spiro-[2H-1-benzopyran-2,1′-cyclobutan]-4-yl)-3-(isoquinolin-5-yl)urea]		0.304		>50
O=C(Nc1cccc2cnccc12)NC1CC2(CCC2)Oc2ccc(F)cc21 (single isomer, unassigned; (-)) [Example 44, (−) 1-(3,4-Dihydro-6-fluorospiro[2H-1-benzopyran-2,1′-cyclobutane]-4-yl)-3-(isoquinolin-5-yl)urea]	< 50			
O=C(Nc1cccc2nsnc12)NC1CC2(CCC2)Oc2ccccc21 (centres unmarked) [Example 28, N-2,1,3-benzothiadiazol-4-yl-N′-3,3′,4,4′-tetrahydro-2′H-spiro[chromene-2,1′-cyclobutan]-4-ylurea (N-2,1,3-benzothiadiazol-4-yl-N′-3,4-dihydro-2H-spiro[chromene-2,1′-cyclobutan]-4-ylurea)]				<50
O=C(Nc1cccc2nsnc12)NC1CC2(CCC2)Oc2ccccc21 (centres unmarked) [Example 29, N-2,1,3-benzothiadiazol-4-yl-N′-3,3′,4,4′-tetrahydro-2′H-spiro[chromene-2,1′-cyclobutan]-4-ylurea (N-2,1,3-benzothiadiazol-4-yl-N′-3,4-dihydro-2H-spiro[chromene-2,1′-cyclobutan]-4-ylurea)]				<50
O=C(Nc1cccc2c(=O)[nH]ccc12)NC1CC2(CCC2)Oc2ccccc21 (centres unmarked) [Example 30, N′-(1-oxo-1,2-dihydroisoquinolin-5-yl)-N-3,3′,4,4′-tetrahydro-2′H-spiro[chromene-2,1′-cyclobutan]-4-ylurea (N′-(1-oxo-1,2-dihydroisoquinolin-5-yl)-N-3,4-dihydro-2H-spiro[chromene-2,1′-cyclobutan]-4-ylurea)]				<50
O=C(NCc1ccncc1)N[C@H]1CC2(CCC2)Oc2ccccc21 [Example 37]	0			
O=C(NCc1ccc(C(F)(F)F)cc1)N[C@H]1CC2(CCC2)Oc2ccccc21 [Example 38, 1-((S)-3,4-Dihydrospiro[2H-1-benzopyran-2,1′-cyclobutan]-4-yl)-3-(4-trifluoromethylbenzyl)urea]	10.9			
O=C(NC1CC2(CCC2)Oc2ccccc21)N1CCCCC1 (centres unmarked) [Example 39, N-3,4-dihydrospiro[chromene-2,1′-cyclobutan]-4-ylpiperidine-1-carboxamide]	0			
(±) 1-(3,4-Dihydro-6-fluoro-spiro[2H-1-benzopyran-2,1′-cyclobutane]-4-yl)-3-(isoquinolin-5-yl)urea [Example 50]		0.0078		>50
(±) 1-(3,4-Dihydro-spiro[2H-1-benzopyran-2,1′-cyclobutane]-4-yl)-3-(6-fluoro-1,3-benzothiazol-2-yl)urea [Example 12]				<50
